PMC11207052, “Synthesis, Biological, and Computational Evaluations of Conformationally Restricted NAD-Mimics as Discriminant Inhibitors of Human NMN-Adenylyltransferase Isozymes” (Pharmaceuticals, 2024)
Structures can show the parent of a compound that is named as a salt. Where two headings read alike, the source gives them in different places. Blank lines part the entries; values can stand above or below the compound they belong to.

Legend:
hNMNAT-1 = biological target: T1, hNMNAT-1 (Homo sapiens, UniProt Q9HAN9); assay: NMN adenylyltransferase activity assay (pyrophosphatase-coupled, malachite green), hNMNAT-1; assay type: biochemical; parameters: key to mode of inhibition (in brackets) towards NMN, hNMNAT-1 / mode of inhibition (in brackets) towards ATP, hNMNAT-1: M, mixed inhibition; C, competitive; U, uncompetitive; conditions: for Ki: inhibitor 30 and 90 µM, ± std. error, αKi in the case of uncompetitive inhibition
T1 construct: made in house
Text: (§1) The reaction catalyzed by NMN adenylyltransferase can be represented as NMN + ATP (NAD + PPi). To avoid interference of methyl NAD analogues with NAD-based detection assays, we used a “pyrophosphate-dependent” coupled assay that couples NMNAT activity with inorganic pyrophosphatase (PPase) that hydrolyzes PPi into two molecules of inorganic phosphate (Pi). Phosphate was quantified using a malachite green dye as described. Enzyme purification procedures followed previous reports. The reactions were carried out using a 96-well microplate assay format at room temperature in a total volume of 50 µL per well. The reaction mixtures contained 100 mM Hepes, pH 7.5, 10 mM MgCl2, 0.1 mg/mL bovine serum albumin, and an excess of 4 U/mL of inorganic pyrophosphatase. The hNMNAT concentration, ranging from 3 to 15 nM, was adjusted in different tests to ensure initial velocity conditions (5–10% substrate depletion) while retaining a linear response. An amount of 100 µL of the malachite green reagent was added to each well to stop the reactions. Following a 20–30 min incubation period, the molybdate in the reagent formed a complex with the free phosphate, resulting in full-color development. The phosphate concentration was then quantified by measuring the absorbance at 620 nm using a microplate reader (Biotek Synergy HT) and interpolating these values against a pre-established standard curve. Absorbance from control reactions performed in the absence of hNMNAT were subtracted from absorbances of the respective reactions with the enzyme to account for background hydrolysis. Details for substrate and inhibitor concentration range are given below and in the legend of Figure 2. Assays with the inhibitors were carried out in triplicate, and the percentage of inhibition at each concentration was calculated for the initial screening at 0.5 mM.
(§2) Values for inhibition constant Ki and α were determined by fitting the data to the rate equation for general mixed model inhibition: V = VmaxS/[Km(1 + I/Ki) + S(1 + I/[…])] using GraphPad Prism software version 7.05, where Vmax and Km are the classic Michaelis–Menten parameters, Ki is the equilibrium dissociation constant for the enzyme-inhibitor complex, S and I are the substrate and the inhibitor concentration, respectively. This model includes competitive, uncompetitive, and noncompetitive inhibition as special cases that the α values can diagnose. Further mechanistic insights into the mode of inhibition were drawn by graphical inspection of the Lineaweaver–Burk plots.

hNMNAT-2 = biological target: T2, hNMNAT-2 (Homo sapiens, UniProt Q9BZQ4); assay: NMN adenylyltransferase activity assay (pyrophosphatase-coupled, malachite green), hNMNAT-2; assay type: biochemical; parameters: key to mode of inhibition (in brackets) towards NMN, hNMNAT-2 / mode of inhibition (in brackets) towards ATP, hNMNAT-2: M, mixed inhibition; C, competitive; U, uncompetitive; conditions: for enzyme inhibition in the initial screening, hNMNAT-2: fixed concentration of 0.5 mM inhibitor; for Ki: inhibitor 30 and 90 µM, ± std. error, αKi in the case of uncompetitive inhibition
T2 construct: made in house
Text: as §1, §2

hNMNAT-3 [1] = biological target: T3, hNMNAT-3 (Homo sapiens, UniProt Q96T66); assay: NMN adenylyltransferase activity assay (pyrophosphatase-coupled, malachite green), hNMNAT-3; assay type: biochemical; parameters: key to mode of inhibition (in brackets) towards NMN, hNMNAT-3 / mode of inhibition (in brackets) towards ATP, hNMNAT-3: M, mixed inhibition; C, competitive; U, uncompetitive; conditions: for enzyme inhibition in the initial screening, hNMNAT-3: fixed concentration of 0.5 mM inhibitor; for Ki: inhibitor 30 and 90 µM, ± std. error, αKi in the case of uncompetitive inhibition
T3 construct: made in house
Text: as §1, §2

hNMNAT-3 [2] = biological target: T3, hNMNAT-3; parameters: method as in PMID 16118205, PMID 18336280; conditions: most sensitive isoform; cited from earlier work
[3] = fixed concentration of 0.5 mM inhibitor
[4] = ATP varied, NMN fixed (0.5 mM), read-out: Ki towards ATP, hNMNAT-2
[5] = NMN varied, ATP fixed (0.5 mM), read-out: Ki towards NMN, hNMNAT-2
[6] = steady-state kinetic analysis, versus ATP

T2 sequence (Q9BZQ4 whole entry): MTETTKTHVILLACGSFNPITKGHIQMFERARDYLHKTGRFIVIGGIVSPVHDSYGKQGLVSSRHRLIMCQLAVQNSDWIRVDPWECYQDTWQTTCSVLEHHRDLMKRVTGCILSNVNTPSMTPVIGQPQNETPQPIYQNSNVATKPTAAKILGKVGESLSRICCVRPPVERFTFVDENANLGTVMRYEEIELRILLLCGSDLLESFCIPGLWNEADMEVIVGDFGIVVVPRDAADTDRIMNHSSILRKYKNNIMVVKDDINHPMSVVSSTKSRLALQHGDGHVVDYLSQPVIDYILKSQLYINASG
T3 sequence (Q96T66 whole entry): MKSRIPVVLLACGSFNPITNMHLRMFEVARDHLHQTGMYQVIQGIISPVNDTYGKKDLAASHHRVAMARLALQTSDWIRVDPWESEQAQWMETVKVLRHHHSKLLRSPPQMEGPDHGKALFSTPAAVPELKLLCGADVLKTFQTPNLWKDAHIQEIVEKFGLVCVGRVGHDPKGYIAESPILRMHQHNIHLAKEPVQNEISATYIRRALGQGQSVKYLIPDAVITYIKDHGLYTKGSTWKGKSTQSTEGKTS
T1 sequence (Q9HAN9 whole entry): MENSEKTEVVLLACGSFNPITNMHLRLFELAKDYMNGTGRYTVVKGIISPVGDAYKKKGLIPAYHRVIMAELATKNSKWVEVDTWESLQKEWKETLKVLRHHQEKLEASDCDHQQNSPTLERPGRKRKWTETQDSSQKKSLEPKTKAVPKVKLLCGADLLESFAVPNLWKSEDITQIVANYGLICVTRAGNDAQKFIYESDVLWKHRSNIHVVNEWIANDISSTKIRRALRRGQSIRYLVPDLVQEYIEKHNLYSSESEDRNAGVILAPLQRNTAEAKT

enzyme inhibition in the initial screening, hNMNAT-1 (hNMNAT-1; [3]): absence of inhibition
enzyme inhibition in the initial screening, hNMNAT-2 (hNMNAT-2): absence of inhibition
enzyme inhibition in the initial screening, hNMNAT-3 (hNMNAT-3 [1]): absence of inhibition
SMILES: C[C@@]1(O)[C@H](O)[C@@H](CO)O[C@H]1n1cnc2c(N)ncnc21 [Compound 11, 2′-MeAdo]

enzyme inhibition in the initial screening, hNMNAT-1 (hNMNAT-1; [3]): absence of inhibition
enzyme inhibition in the initial screening, hNMNAT-2 (hNMNAT-2): absence of inhibition
enzyme inhibition in the initial screening, hNMNAT-3 (hNMNAT-3 [1]): absence of inhibition
SMILES: C[C@@]1(O)[C@@H](CO)O[C@@H](n2cnc3c(N)ncnc32)[C@@H]1O [Compound 12, 3′-MeAdo]

Continued, compound first:

SMILES: C[C@@]1(O)[C@H](O)[C@@H](COP(=O)(O)O)O[C@H]1n1cnc2c(N)ncnc21 [2′-MeAMP (5), 9H-(2′-C-Methyl-β-D-ribofuranosyl)adenine-5′-monophosphate Tributyl Ammonium Salt]
enzyme inhibition in the initial screening, hNMNAT-1 (hNMNAT-1; [3]): absence of inhibition
enzyme inhibition in the initial screening, hNMNAT-2 (hNMNAT-2): absence of inhibition
enzyme inhibition in the initial screening, hNMNAT-3 (hNMNAT-3 [1]): absence of inhibition

SMILES: C[C@@]1(O)[C@H](O)[C@@H](COP(=O)([O-])OP(=O)(O)OC[C@H]2O[C@@H]([n+]3cccc(C(N)=O)c3)[C@H](O)[C@@H]2O)O[C@H]1n1cnc2c(N)ncnc21 [2′-MeNAD (1), P^1-[5′-(2′-C-Methyl-β-D-ribofuranosyl)adenine]-P^2-[5′-(β-D-ribofuranosyl)nicotinamide] Pyrophosphate]
inhibition at 500 µM (hNMNAT-1; fixed concentration of 0.5 mM inhibitor, read-out: enzyme inhibition in the initial screening, hNMNAT-1): < 50%
mode of inhibition (in brackets) towards ATP, hNMNAT-2 (hNMNAT-2; ATP varied): M
Ki (hNMNAT-2; [4]): 21 ± 3 µM
mode of inhibition (in brackets) towards NMN, hNMNAT-2 (hNMNAT-2; NMN varied): M
Ki (hNMNAT-2; [5]): 15 ± 3 µM
mode of inhibition (in words), hNMNAT-2 (hNMNAT-2; steady-state kinetic analysis): mixed-type inhibition with a strong non-competitive character

SMILES: C[C@@]1(O)[C@H](O)[C@@H](COP(=O)([O-])OP(=O)(O)OC[C@H]2O[C@@H]([n+]3cccc(C(=O)O)c3)[C@H](O)[C@@H]2O)O[C@H]1n1cnc2c(N)ncnc21 [2′-MeNaAD (3), P^1-[5′-(2′-C-Methyl-β-D-ribofuranosyl)adenine]-P^2-[5′-(β-D-ribofuranosyl)nicotinic acid] Pyrophospshate]
mode of inhibition (in brackets) towards ATP, hNMNAT-1 (hNMNAT-1; ATP varied): U
Ki (hNMNAT-1; ATP varied, NMN fixed (0.5 mM), read-out: Ki towards ATP, hNMNAT-1): 82 ± 14 µM
mode of inhibition (in brackets) towards NMN, hNMNAT-1 (hNMNAT-1; NMN varied): C
Ki (hNMNAT-1; NMN varied, ATP fixed (0.5 mM), read-out: Ki towards NMN, hNMNAT-1): 168 ± 19 µM
mode of inhibition versus ATP (in words), hNMNAT-1 (hNMNAT-1; [6]): uncompetitive character
mode of inhibition (in brackets) towards ATP, hNMNAT-2 (hNMNAT-2; ATP varied): U
Ki (hNMNAT-2; [4]): 41 ± 14 µM
mode of inhibition (in brackets) towards NMN, hNMNAT-2 (hNMNAT-2; NMN varied): M
Ki (hNMNAT-2; [5]): 60 ± 18 µM
mode of inhibition versus ATP (in words), hNMNAT-2 (hNMNAT-2; [6]): uncompetitive character
mode of inhibition (in brackets) towards ATP, hNMNAT-3 (hNMNAT-3 [1]; ATP varied): C
Ki (hNMNAT-3 [1]; ATP varied, NMN fixed (0.5 mM), read-out: Ki towards ATP, hNMNAT-3): 223 ± 22 µM
mode of inhibition (in brackets) towards NMN, hNMNAT-3 (hNMNAT-3 [1]; NMN varied): C
Ki (hNMNAT-3 [1]; NMN varied, ATP fixed (0.5 mM), read-out: Ki towards NMN, hNMNAT-3): 224 ± 17 µM

SMILES: C[C@@]1(O)[C@@H](COP(=O)(O)O)O[C@@H](n2cnc3c(N)ncnc32)[C@@H]1O [3′-MeAMP (6), 9H-(3′-C-Methyl-β-D-ribofuranosyl)adenine-5′-monophosphate Tributyl Ammonium Salt]
enzyme inhibition in the initial screening, hNMNAT-1 (hNMNAT-1; [3]): absence of inhibition
enzyme inhibition in the initial screening, hNMNAT-2 (hNMNAT-2): absence of inhibition
enzyme inhibition in the initial screening, hNMNAT-3 (hNMNAT-3 [1]): absence of inhibition

SMILES: O=C(OC[C@H]1O[C@@H](OC(=O)c2cc(O)c(O)c(OC(=O)c3cc(O)c(O)c(O)c3)c2)[C@H](OC(=O)c2cc(O)c(O)c(OC(=O)c3cc(O)c(O)c(O)c3)c2)[C@@H](OC(=O)c2cc(O)c(O)c(OC(=O)c3cc(O)c(O)c(O)c3)c2)[C@@H]1OC(=O)c1cc(O)c(O)c(OC(=O)c2cc(O)c(O)c(O)c2)c1)c1cc(O)c(O)c(OC(=O)c2cc(O)c(O)c(O)c2)c1 [Gallotannin]
IC50 (hNMNAT-3 [2]): 2 µM
